Experimental data published in PubChem BioAssay (NCI).
Several values for one entry are separate records, joined by “and”; a condition that tells them apart may be missing. Equal entries are not always repeated.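 All cell lines were grown in 96-well plates and treated with compound for 48 hours. Abbreviation: GI50, concentration required for 50% inhibition of growth. TGI denotes the concentration required for complete inhibition of growth.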

Experiments:
Test in all cases: growth of human tumour cells (NCI), 48 h
DLD-1 colon = tested on: DLD-1 colon
DMS 273 small cell lung = tested on: DMS 273 small cell lung
HOP-18 NSCLC = tested on: HOP-18 NSCLC
DMS 114 small cell lung = tested on: DMS 114 small cell lung
LXFL 529 NSCLC = tested on: LXFL 529 NSCLC
M19-MEL melanoma = tested on: M19-MEL melanoma
SNB-78 CNS = tested on: SNB-78 CNS
MDA-N = tested on: MDA-N
RXF-631 renal = tested on: RXF-631 renal

| Compound | TGI (DLD-1 colon) | TGI (DMS 273 small cell lung) | TGI (HOP-18 NSCLC) | TGI (DMS 114 small cell lung) [µM] | TGI (LXFL 529 NSCLC) | TGI (M19-MEL melanoma) | TGI (SNB-78 CNS) [µM] | TGI (MDA-N) | TGI (RXF-631 renal) [µM] | GI50 (DLD-1 colon) [µM] | GI50 (HOP-18 NSCLC) [µM] | GI50 (LXFL 529 NSCLC) [µM] | GI50 (M19-MEL melanoma) [µM] | GI50 (MDA-N) [µM] |
| --- | --- | --- | --- | --- | --- | --- | --- | --- | --- | --- | --- | --- | --- | --- |
| Cc1cccc(C)c1NC(=O)/C(Cl)=C(/Cl)C(=O)O | 17.8 µM | 35.9 µM | 38.2 µM | 43.2 | 15.2 µM | 43.7 µM | > 74.6 | 36.8 µM |  |  |  |  |  |  |
| CC1(CO)OC1COCc1ccccc1 (stereo not given) | > 100 µM | > 100 µM |  | > 100 | > 100 µM |  | > 100 |  | > 100 |  |  |  |  |  |
| COc1ccc2c([nH]c3cc(O)c(C)cc32)c1C=O | > 25 µM | > 25 µM |  | > 25 | > 25 µM | > 25 µM | > 25 |  |  |  |  |  |  |  |
| CN(NC(=O)CC(=O)NN(C)C(=S)c1ccccc1)C(=S)c1ccccc1 |  |  |  |  |  |  |  | > 100 µM |  |  |  |  |  |  |
| Cc1ncc([N+](=O)[O-])n1CCNS(=O)(=O)CCCn1ccnc1[N+](=O)[O-] |  |  |  |  |  |  |  | > 100 µM |  |  |  |  |  |  |
| c1cc2c(cc1C(N1CCNCC1)N1CCNCC1)OCO2 |  |  |  |  |  |  |  | > 100 µM |  |  |  |  |  |  |
| CC(C)=CC(=O)Oc1ccc([N+](=O)[O-])cc1 | > 100 µM | > 100 µM | > 100 µM | > 100 | > 100 µM | > 100 µM | > 100 |  |  |  |  |  |  |  |
| O=C1CCCCCCCCCCC(=O)C2CCOCCOCCOCCC1Cc1cccc(n1)C2 | > 100 µM | > 100 µM |  | > 100 | > 100 µM | > 100 µM | > 100 |  | > 100 |  |  |  |  |  |
| O=C(/C=C/C=C/c1ccccc1)CCc1ccccc1 |  |  |  |  |  |  |  | > 100 µM |  |  |  |  |  |  |
| CC(=O)NC1=C(Nc2ccc(C)cc2)C(=O)c2ccccc2C1=O | > 75 µM | 61 µM | 28.5 µM | 38.4 | > 75 µM | 17.5 µM | > 75 |  |  |  |  |  |  |  |
| CC(=O)OCC1OC(OC2CC3C(C)(C)C(OC(C)=O)CC[C@]3(C)C3CCC45CC4(CC[C@H]5C(C)CC(O)[C@@H](O)C(C)(C)O)[C@]23C)C(O)C(O)C1O (stereo not given in full) | 13.7 µM and 23.2 µM | 13.8 µM and 20.3 µM | 15 µM and 17.3 µM |  | 11.3 µM and 16.2 µM | 13.7 µM and 12.7 µM |  |  |  | 10.4 | 5.43 | 4.65 | 3.18 |  |
| CCOc1cc2c(cnc3c4cc(OC)c(OC)cc4ccc23)cc1OC | > 100 µM |  |  | > 100 | > 100 µM | > 100 µM |  |  |  |  |  |  |  |  |
| COc1ccc(C(=O)C(c2ccc(OC)cc2)C2(O)C(=O)Nc3c(C)cc(Cl)cc32)cc1 (stereo not given) | > 100 µM | > 100 µM |  |  | > 100 µM | 44.2 µM | > 100 |  | > 100 |  |  |  |  |  |
| c1nc2cscc2c2cscc12 |  | > 100 µM |  | > 100 | > 100 µM | > 100 µM | > 100 |  |  |  |  |  |  |  |
| O=C1/C(=C/c2ccc(O)c([N+](=O)[O-])c2)CCC/C1=C\c1ccc(O)c([N+](=O)[O-])c1 |  |  |  |  |  |  |  | 19.9 µM and > 100 µM |  |  |  |  |  | 25.9 |
| COc1ccc(/C=C\c2cc(OC)c(OC)c(OC)c2)cc1OC(=O)C(N)CCC(=O)O (stereo not given) | > 100 µM |  |  |  |  | 67.3 µM | 46.4 |  |  |  |  |  |  | 0.000204 |
| [N-]=[N+]=C(C(=O)OCC#CCOC(=O)C(=[N+]=[N-])S(=O)(=O)c1ccccc1)S(=O)(=O)c1ccccc1 |  |  |  |  |  |  |  | > 10 µM |  |  |  |  |  |  |
| Clc1ccc(-n2nnc(C3=NCCCN3)c2-c2ccccc2)cc1 | > 100 µM | > 100 µM | > 100 µM | > 100 | > 100 µM | > 100 µM | > 100 |  |  |  |  |  |  |  |
| OCC(O)C(O)C(O)C1SC(c2ccccc2)=NN1c1ccccc1 (stereo not given) | > 100 µM | > 100 µM | > 100 µM | > 100 | > 100 µM | > 100 µM | > 96.4 | > 100 µM | > 100 |  |  |  |  |  |
| COC(=O)/C=C(C)/C=C/c1cc(C(C)=O)c(C)o1 | > 100 µM |  | > 100 µM | > 100 | > 100 µM |  | > 100 |  |  |  |  |  |  |  |
| CC(=O)[CH-]C(=O)c1ccccc1.CC(=O)[CH-]C(=O)c1ccccc1.CC(=O)[CH-]C(=O)c1ccccc1.[Tl+3] | > 100 µM |  | > 100 µM |  | > 100 µM | > 100 µM |  |  |  | 22.2 | > 100 | 56.2 | 38 |  |
